Results as given in patent publication US20220281848A1, “PYRAZOLE-SUBSTITUTED PYRROLIDINONES AS HERBICIDES” (FMC Corporation, priority 2019, published 2022).

Tested on: plants
Experiment: Test D pre-emergence, other plants of Tables D1 and D3
Format: in vivo
Conditions: for damage to plant (100=total damage to plant; 0=no damage to plant), ABUTH / damage to plant (100=total damage to plant; 0=no damage to plant), BIDPI / damage to plant (100=total damage to plant; 0=no damage to plant), BRAPL / damage to plant (100=total damage to plant; 0=no damage to plant), CYPES / damage to plant (100=total damage to plant; 0=no damage to plant), DIGSA / damage to plant (100=total damage to plant; 0=no damage to plant), ECHCG / damage to plant (100=total damage to plant; 0=no damage to plant), ELEIN / damage to plant (100=total damage to plant; 0=no damage to plant), EPHHL / damage to plant (100=total damage to plant; 0=no damage to plant), GLXMA / damage to plant (100=total damage to plant; 0=no damage to plant), IPOHE / damage to plant (100=total damage to plant; 0=no damage to plant), ORYSA / damage to plant (100=total damage to plant; 0=no damage to plant), PANMI / damage to plant (100=total damage to plant; 0=no damage to plant), SETFA / damage to plant (100=total damage to plant; 0=no damage to plant), SIDSP / damage to plant (100=total damage to plant; 0=no damage to plant), SORVU: preemergent, 20 DAA
Summary of the method: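 Damage was rated visually from 0 (none) to 100 (total), at 20 DAA for pre-emergence and 15 d for post-emergence. Plants grew from safener-treated seed in a glasshouse at 24/18° C. or 20/16° C. day/night, 65% humidity, watered twice daily.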

[1] = pre-emergence, rate 15, 20 DAA, 100=total damage, 0=no damage

## CCn1nc([C@H]2CN(C)C(=O)[C@@H]2C(=O)Nc2cccc(F)c2F)c2ccc(F)cc21 [Compound 4]
Rate 15
  damage to plant (100=total damage to plant; 0=no damage to plant), ABUTH: 0
  damage to plant (100=total damage to plant; 0=no damage to plant), BIDPI: 0
  damage to plant (100=total damage to plant; 0=no damage to plant), BRAPL: 40
  damage to plant (100=total damage to plant; 0=no damage to plant), CYPES: 0
  damage to plant (100=total damage to plant; 0=no damage to plant), DIGSA: 0
  damage to plant (100=total damage to plant; 0=no damage to plant), ECHCG: 0
  damage to plant (100=total damage to plant; 0=no damage to plant), ELEIN: 0
  damage to plant (100=total damage to plant; 0=no damage to plant), EPHHL: 0
  damage to plant (100=total damage to plant; 0=no damage to plant), GLXMA: 0
  damage to plant (100=total damage to plant; 0=no damage to plant), IPOHE: 0
  damage to plant (100=total damage to plant; 0=no damage to plant), ORYSA: 0
  damage to plant (100=total damage to plant; 0=no damage to plant), PANMI: 0
  damage to plant (100=total damage to plant; 0=no damage to plant), SETFA: 10
  damage to plant (100=total damage to plant; 0=no damage to plant), SIDSP: 0
  damage to plant (100=total damage to plant; 0=no damage to plant), SORVU: 0
Rate 30
  damage to plant (100=total damage to plant; 0=no damage to plant), ABUTH: 0
  damage to plant (100=total damage to plant; 0=no damage to plant), BIDPI: 0
  damage to plant (100=total damage to plant; 0=no damage to plant), BRAPL: 40
  damage to plant (100=total damage to plant; 0=no damage to plant), CYPES: 0
  damage to plant (100=total damage to plant; 0=no damage to plant), DIGSA: 60
  damage to plant (100=total damage to plant; 0=no damage to plant), ECHCG: 40
  damage to plant (100=total damage to plant; 0=no damage to plant), ELEIN: 0
  damage to plant (100=total damage to plant; 0=no damage to plant), EPHHL: 0
  damage to plant (100=total damage to plant; 0=no damage to plant), GLXMA: 0
  damage to plant (100=total damage to plant; 0=no damage to plant), IPOHE: 0
  damage to plant (100=total damage to plant; 0=no damage to plant), ORYSA: 0
  damage to plant (100=total damage to plant; 0=no damage to plant), PANMI: 0
  damage to plant (100=total damage to plant; 0=no damage to plant), SETFA: 70
  damage to plant (100=total damage to plant; 0=no damage to plant), SIDSP: 0
  damage to plant (100=total damage to plant; 0=no damage to plant), SORVU: 0
Rate 60
  damage to plant (100=total damage to plant; 0=no damage to plant), ABUTH: 0
  damage to plant (100=total damage to plant; 0=no damage to plant), BIDPI: 0
  damage to plant (100=total damage to plant; 0=no damage to plant), BRAPL: 60
  damage to plant (100=total damage to plant; 0=no damage to plant), CYPES: 0
  damage to plant (100=total damage to plant; 0=no damage to plant), DIGSA: 80
  damage to plant (100=total damage to plant; 0=no damage to plant), ECHCG: 80
  damage to plant (100=total damage to plant; 0=no damage to plant), EPHHL: 0
  damage to plant (100=total damage to plant; 0=no damage to plant), GLXMA: 0
  damage to plant (100=total damage to plant; 0=no damage to plant), IPOHE: 0
  damage to plant (100=total damage to plant; 0=no damage to plant), ORYSA: 0
  damage to plant (100=total damage to plant; 0=no damage to plant), PANMI: 0
  damage to plant (100=total damage to plant; 0=no damage to plant), SETFA: 70
  damage to plant (100=total damage to plant; 0=no damage to plant), SIDSP: 0
  damage to plant (100=total damage to plant; 0=no damage to plant), SORVU: 10
Rate 130
  damage to plant (100=total damage to plant; 0=no damage to plant), ABUTH: 0
  damage to plant (100=total damage to plant; 0=no damage to plant), BIDPI: 0
  damage to plant (100=total damage to plant; 0=no damage to plant), BRAPL: 80
  damage to plant (100=total damage to plant; 0=no damage to plant), CYPES: 0
  damage to plant (100=total damage to plant; 0=no damage to plant), DIGSA: 90
  damage to plant (100=total damage to plant; 0=no damage to plant), ECHCG: 90
  damage to plant (100=total damage to plant; 0=no damage to plant), EPHHL: 0
  damage to plant (100=total damage to plant; 0=no damage to plant), GLXMA: 0
  damage to plant (100=total damage to plant; 0=no damage to plant), IPOHE: 0
  damage to plant (100=total damage to plant; 0=no damage to plant), ORYSA: 0
  damage to plant (100=total damage to plant; 0=no damage to plant), PANMI: 0
  damage to plant (100=total damage to plant; 0=no damage to plant), SETFA: 80
  damage to plant (100=total damage to plant; 0=no damage to plant), SORVU: 10
Rate 250
  damage to plant (100=total damage to plant; 0=no damage to plant), ABUTH: 0
  damage to plant (100=total damage to plant; 0=no damage to plant), BIDPI: 0
  damage to plant (100=total damage to plant; 0=no damage to plant), BRAPL: 90
  damage to plant (100=total damage to plant; 0=no damage to plant), CYPES: 0
  damage to plant (100=total damage to plant; 0=no damage to plant), DIGSA: 90
  damage to plant (100=total damage to plant; 0=no damage to plant), ECHCG: 90
  damage to plant (100=total damage to plant; 0=no damage to plant), ELEIN: 10
  damage to plant (100=total damage to plant; 0=no damage to plant), EPHHL: 0
  damage to plant (100=total damage to plant; 0=no damage to plant), GLXMA: 0
  damage to plant (100=total damage to plant; 0=no damage to plant), IPOHE: 0
  damage to plant (100=total damage to plant; 0=no damage to plant), ORYSA: 0
  damage to plant (100=total damage to plant; 0=no damage to plant), PANMI: 20
  damage to plant (100=total damage to plant; 0=no damage to plant), SETFA: 90
  damage to plant (100=total damage to plant; 0=no damage to plant), SORVU: 40
Rate 500
  damage to plant (100=total damage to plant; 0=no damage to plant), ABUTH: 0
  damage to plant (100=total damage to plant; 0=no damage to plant), BIDPI: 0
  damage to plant (100=total damage to plant; 0=no damage to plant), BRAPL: 90
  damage to plant (100=total damage to plant; 0=no damage to plant), CYPES: 0
  damage to plant (100=total damage to plant; 0=no damage to plant), DIGSA: 90
  damage to plant (100=total damage to plant; 0=no damage to plant), ECHCG: 90
  damage to plant (100=total damage to plant; 0=no damage to plant), ELEIN: 10
  damage to plant (100=total damage to plant; 0=no damage to plant), EPHHL: 10
  damage to plant (100=total damage to plant; 0=no damage to plant), GLXMA: 0
  damage to plant (100=total damage to plant; 0=no damage to plant), IPOHE: 10
  damage to plant (100=total damage to plant; 0=no damage to plant), ORYSA: 0
  damage to plant (100=total damage to plant; 0=no damage to plant), PANMI: 40
  damage to plant (100=total damage to plant; 0=no damage to plant), SETFA: 90
  damage to plant (100=total damage to plant; 0=no damage to plant), SIDSP: 0
  damage to plant (100=total damage to plant; 0=no damage to plant), SORVU: 50
[1]
  damage to plant, ALOMY: 0
  damage to plant, AVEFA: 0
